Laboratory results: article PMC4931022, “Arginine demethylation is catalysed by a subset of JmjC histone lysine demethylases” (Nature Communications, 2016)
One block for each substance: values may come before it.

Assays:
Type in all cases: biochemical
KDM4E [1] = biological target: T1, KDM4E (Homo sapiens, UniProt B2RXH2); assay: MALDI MS activity assay, recombinant KDM4E catalytic domain; conditions: peptide 10 μM, 1 h, 37 °C, MALDI-TOF MS; for demethylation, in words: KDM4E catalytic domain 2 μM; for observed arginine demethylation activity: KDM4E 2 μM, 2OG 200 μM, ascorbate 100 μM, Fe(II) 10 μM, 50 mM HEPES pH 7.5, −14 Da shift
T1 construct: His6 (N); made in house; host or cells: Escherichia coli
T1 sequence (B2RXH2 1-337): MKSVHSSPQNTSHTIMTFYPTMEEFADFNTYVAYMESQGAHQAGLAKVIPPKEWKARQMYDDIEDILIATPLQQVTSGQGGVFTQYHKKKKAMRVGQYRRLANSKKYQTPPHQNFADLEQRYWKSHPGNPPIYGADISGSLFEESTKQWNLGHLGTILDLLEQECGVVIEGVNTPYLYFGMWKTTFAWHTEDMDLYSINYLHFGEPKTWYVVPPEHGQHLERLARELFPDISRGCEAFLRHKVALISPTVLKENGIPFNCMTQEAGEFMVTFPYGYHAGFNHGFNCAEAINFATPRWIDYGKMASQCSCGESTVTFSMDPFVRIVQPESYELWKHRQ
Method: (§1) MALDI MS activity assays. Recombinant proteins (2 μM) were incubated with peptides (10 μM, sequences are given in Supplementary Table 1) and cofactors/substrates for 1 h at 37 °C, unless otherwise specified. Reactions were quenched with 1:1 (v/v) methanol and analysed with MALDI MS. Assay conditions for each enzyme are given in Supplementary Table 2. Negative controls without enzyme were included.
(§2) Supplementary Table 2 Assay conditions with truncated recombinant protein. […]

KDM5C [2] = biological target: T2, KDM5C (Homo sapiens, UniProt P41229); assay: MALDI MS activity assay, recombinant KDM5C catalytic domain; conditions: peptide 10 μM, 1 h, 37 °C, MALDI-TOF MS; for demethylation, in words: KDM5C catalytic domain 2 μM; for observed arginine demethylation activity: KDM5C 2 μM, 2OG 100 μM, ascorbate 100 μM, Fe(II) 10 μM, 50 mM HEPES pH 7.5, −14 Da shift
T2 construct: KDM5C1–765 was produced as an N-terminally His6-tagged protein in Sf9 cells; His6 (N); made in house; host or cells: Sf9 cells (provided by the Structural Genomics Consortium)
T2 sequence (P41229 1-765): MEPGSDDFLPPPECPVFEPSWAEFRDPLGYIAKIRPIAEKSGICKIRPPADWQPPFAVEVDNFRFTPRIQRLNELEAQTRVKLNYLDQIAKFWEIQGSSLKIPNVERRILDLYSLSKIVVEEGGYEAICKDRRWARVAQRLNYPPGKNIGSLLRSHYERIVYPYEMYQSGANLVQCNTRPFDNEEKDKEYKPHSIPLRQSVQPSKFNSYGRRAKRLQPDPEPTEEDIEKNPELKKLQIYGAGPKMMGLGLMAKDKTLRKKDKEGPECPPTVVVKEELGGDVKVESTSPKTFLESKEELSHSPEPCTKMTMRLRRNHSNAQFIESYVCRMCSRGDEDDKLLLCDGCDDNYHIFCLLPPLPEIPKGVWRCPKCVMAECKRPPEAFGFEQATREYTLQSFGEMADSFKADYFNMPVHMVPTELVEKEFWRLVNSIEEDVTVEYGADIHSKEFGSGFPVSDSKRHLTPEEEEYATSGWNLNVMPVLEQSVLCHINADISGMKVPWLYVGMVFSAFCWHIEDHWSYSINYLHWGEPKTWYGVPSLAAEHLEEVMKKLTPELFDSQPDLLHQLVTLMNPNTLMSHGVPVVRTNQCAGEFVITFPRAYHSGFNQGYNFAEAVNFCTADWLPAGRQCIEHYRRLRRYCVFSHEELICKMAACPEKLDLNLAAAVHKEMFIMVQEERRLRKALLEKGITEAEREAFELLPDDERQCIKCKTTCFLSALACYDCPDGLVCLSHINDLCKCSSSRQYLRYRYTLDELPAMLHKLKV
Method: as §1, §2

KDM6B = biological target: T3, KDM6B (Homo sapiens, UniProt O15054); assay: MALDI MS activity assay, recombinant KDM6B catalytic domain; conditions: KDM6B 2 μM, peptide 10 μM, 1 h, 37 °C, 2OG 100 μM, ascorbate 100 μM, Fe(II) 10 μM, 50 mM HEPES pH 7.5, 150 mM NaCl; MALDI-TOF MS, −14 Da shift
T3 construct: His6 (N); made in house; host or cells: Escherichia coli
Method: as §1
(§3) Supplementary Table 2 Assay conditions with truncated recombinant protein.
(§4) Supplementary Table 3 Assay conditions with full length Flag-tagged KDMs.

KDM3A [3] = biological target: T4, KDM3A (Homo sapiens, UniProt Q9Y4C1); assay: MALDI MS activity assay, recombinant KDM3A catalytic domain; conditions: KDM3A 2 μM, peptide 10 μM, 1 h, 37 °C, 2OG 100 μM, ascorbate 100 μM, Fe(II) 50 μM, 50 mM HEPES pH 7.5; MALDI-TOF MS, −14 Da shift
T4 construct: KDM3A515–1,317; His6 (N); made in house; host or cells: Sf9 cells
T4 sequence (Q9Y4C1 515-1317 limits assumed): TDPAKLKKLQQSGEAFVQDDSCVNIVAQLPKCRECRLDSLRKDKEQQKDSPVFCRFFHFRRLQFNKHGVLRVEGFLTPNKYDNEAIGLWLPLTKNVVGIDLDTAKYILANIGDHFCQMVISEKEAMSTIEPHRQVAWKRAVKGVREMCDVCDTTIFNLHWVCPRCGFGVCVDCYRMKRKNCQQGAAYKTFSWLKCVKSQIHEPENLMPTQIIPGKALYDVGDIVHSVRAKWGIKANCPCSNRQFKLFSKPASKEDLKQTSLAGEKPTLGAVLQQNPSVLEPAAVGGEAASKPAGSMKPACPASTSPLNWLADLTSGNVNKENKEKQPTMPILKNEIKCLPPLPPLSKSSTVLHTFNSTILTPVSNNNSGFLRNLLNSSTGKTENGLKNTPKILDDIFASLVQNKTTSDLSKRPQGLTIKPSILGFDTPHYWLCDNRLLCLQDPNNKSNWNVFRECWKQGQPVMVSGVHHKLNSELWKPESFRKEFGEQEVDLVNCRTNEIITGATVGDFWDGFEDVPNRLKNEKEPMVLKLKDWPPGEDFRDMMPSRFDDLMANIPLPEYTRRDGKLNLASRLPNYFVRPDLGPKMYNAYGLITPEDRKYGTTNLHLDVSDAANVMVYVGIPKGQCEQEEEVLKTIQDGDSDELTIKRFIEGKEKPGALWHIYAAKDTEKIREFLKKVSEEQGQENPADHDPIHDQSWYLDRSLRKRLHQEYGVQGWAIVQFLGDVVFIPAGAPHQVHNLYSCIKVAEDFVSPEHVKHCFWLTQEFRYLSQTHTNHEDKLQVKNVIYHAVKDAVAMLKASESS
Method: as §1, §3, §4

KDM5C [4] = biological target: T2, KDM5C; assay: Formaldehyde dehydrogenase-coupled demethylation assay, KDM5C; conditions: for kcat / Km: KDM5C catalytic domain, apparent, preliminary, 37 °C, mean±s.e.m., n=3; for kcat: FDH/NAD+-coupled assay; for Km: FDH/NAD+-coupled formaldehyde assay, 2OG 200 μM, Fe(II) 10 μM, ascorbate 100 μM; for kcat/KM: KDM5C, calculated from the average kcat and KM values, μM^−1 s^−1 for this quantity
Method: (§5) Formaldehyde dehydrogenase-coupled assays. Preliminary kinetic parameters were determined by detection of the formaldehyde by-product of the demethylation reaction using a FDH (formaldehyde dehydrogenase-coupled)/NAD^+-coupled assay as previously described. Assays were carried out in buffer (enzyme-dependent) with the addition of Fe(II) ammonium sulfate (10 μM), sodium ascorbate (100 μM), 2OG (200 μM), NAD^+ (500 μM), enzyme (0.2–4 μM) and FDH enzyme (0.025 U per assay, Sigma-Aldrich; total volume 30 μl) and were conducted at 37 °C in clear-bottom black 384-well plates. […] The Km and Vmax values were calculated from the reaction rate during the linear phase of formaldehyde production, as determined by the slope of the fluorescence signal recorded.

KDM3A [5] = biological target: T4, KDM3A; assay: Formaldehyde dehydrogenase-coupled demethylation assay, KDM3A; conditions: for kcat / Km: KDM3A catalytic domain, apparent, preliminary, 37 °C, mean±s.e.m., n=3; for kcat: FDH/NAD+-coupled assay; for Km: FDH/NAD+-coupled formaldehyde assay, 2OG 200 μM, Fe(II) 10 μM, ascorbate 100 μM, fluorescence 355/460 nm; for kcat/KM: KDM3A, calculated from the average kcat and KM values, μM^−1 s^−1 for this quantity
Method: as §5

KDM4E [6] = biological target: T1, KDM4E; assay: Formaldehyde dehydrogenase-coupled demethylation assay, KDM4E; conditions: for Km: FDH/NAD+-coupled formaldehyde assay, 2OG 200 μM, Fe(II) 10 μM, ascorbate 100 μM
Method: as §5

[7] = KDM4E catalytic domain, apparent, preliminary, FDH/NAD+-coupled assay, 37 °C, mean±s.e.m., n=3
[8] = KDM4E catalytic domain, apparent, preliminary, 37 °C, mean±s.e.m., n=3
[9] = KDM4E, calculated from the average kcat and KM values, μM^−1 s^−1 for this quantity

T3 sequence (O15054 1141-1590 limits assumed): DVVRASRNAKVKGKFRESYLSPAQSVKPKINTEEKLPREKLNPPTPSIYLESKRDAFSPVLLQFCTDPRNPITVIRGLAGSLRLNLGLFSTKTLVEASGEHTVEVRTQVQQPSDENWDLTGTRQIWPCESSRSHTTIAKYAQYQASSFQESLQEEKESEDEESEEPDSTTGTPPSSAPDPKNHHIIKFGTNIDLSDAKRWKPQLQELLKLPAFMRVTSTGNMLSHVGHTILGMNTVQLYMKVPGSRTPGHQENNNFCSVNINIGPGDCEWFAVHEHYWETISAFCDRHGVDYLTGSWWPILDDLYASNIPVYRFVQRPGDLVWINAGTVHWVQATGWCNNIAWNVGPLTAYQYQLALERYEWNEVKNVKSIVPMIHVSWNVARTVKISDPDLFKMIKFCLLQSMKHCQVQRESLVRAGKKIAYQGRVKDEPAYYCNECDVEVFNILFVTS

demethylation, in words (KDM4E [1]): not observed to be a KDM substrate
demethylation, in words (KDM4E [1]; listed as H3(1–15)R2Kme3): no demethylation activity
demethylation, in words (KDM5C [2]): not observed to be a KDM substrate
demethylation, in words (KDM5C [2]; listed as H3(1–15)R2Kme3): no demethylation activity
Substance: A-Kme3-TKQTARKSTGGKA [H3R2Kme3, histone H3 peptide with trimethyllysine substituted for R2]

observed arginine demethylation activity (KDM6B): −
observed arginine demethylation activity (KDM4E [1]): +
observed arginine demethylation activity (KDM5C [2]): +
observed arginine demethylation activity (KDM3A [3]): −
Substance: A-Rme-TKQTARKSTGGKA [H3 (1–15) R2me, 'natural' histone H3 peptide monomethylated at R2]

Substance: ART-Kme3-QTARKSTGGKA [H3(1-15)K4me3, recognized histone H3 N-methylated-lysine peptide substrate for KDM5C, reference compound]
kcat (KDM5C [4]): 67.1±10.3 × 10^−3 s^−1
Km (KDM5C [4]): 7.6 ± 2.9 µM
kcat/KM (KDM5C [4]): 8,800 × 10^−6

Substance: ART-Rme2a-QTARKSTGGKA [H3(1-15)K4Rme2a, histone H3 fragment with asymmetric dimethylarginine replacing methylated K4]
kcat (KDM5C [4]): 41.2±3.5 × 10^−3 s^−1
Km (KDM5C [4]): 29 ± 0.5 µM
kcat/KM (KDM5C [4]): 1,420.0 × 10^−6

Substance: ART-Rme2s-QTARKSTGGKA [H3(1-15)K4Rme2s, histone H3 fragment with symmetric dimethylarginine replacing methylated K4]
kcat (KDM5C [4]): 4.6±0.7 × 10^−3 s^−1
Km (KDM5C [4]): 21.1 ± 5.8 µM
kcat/KM (KDM5C [4]): 219.0 × 10^−6

Substance: ARTKQTAR-Rme2a-STGGKA (ARTKQTARRSTGGKA; asymmetric dimethylarginine at 9; C-terminal amide) [H3(1-15)K9Rme2a, histone H3 fragment with asymmetric dimethylarginine replacing methylated K9]
kcat (KDM3A [5]): 5.0±0.6 × 10^−3 s^−1
Km (KDM3A [5]): 11.6 ± 1.4 µM
kcat/KM (KDM3A [5]): 430.7 × 10^−6
kcat/KM (KDM4E [6]; KDM4E): 7.04e-05 µM⁻¹ s⁻¹
kcat (KDM4E [6]; [7]): 4.6±0.7 × 10^−3 s^−1
Km (KDM4E [6]; [8]): 66 ± 5 µM
kcat/KM (KDM4E [6]; [9]): 70.4 × 10^−6

Substance: ARTKQTAR-Rme2s-STGGKA (ARTKQTARRSTGGKA; symmetric dimethylarginine at 9; C-terminal amide) [H3(1-15)K9Rme2s, histone H3 fragment with symmetric dimethylarginine replacing methylated K9]
kcat (KDM3A [5]): 3.0±0.3 × 10^−3 s^−1
Km (KDM3A [5]): 23.7 ± 1.9 µM
kcat/KM (KDM3A [5]): 126.5 × 10^−6
kcat/KM (KDM4E [6]; KDM4E): 8.59e-05 µM⁻¹ s⁻¹
kcat (KDM4E [6]; [7]): 8.7±0.3 × 10^−3 s^−1
Km (KDM4E [6]; [8]): 101 ± 11 µM
kcat/KM (KDM4E [6]; [9]): 85.9 × 10^−6

Substance: ARTKQTAR-Rme-STGGKA (ARTKQTARRSTGGKA; monomethylarginine at 9; C-terminal amide) [H3(1-15)K9Rme, histone H3 fragment with monomethylarginine replacing methylated K9]
kcat (KDM3A [5]): 11.0±1.2 × 10^−3 s^−1
Km (KDM3A [5]): 12.1 ± 3.1 µM
kcat/KM (KDM3A [5]): 907.6 × 10^−6
kcat (KDM4E [6]; [7]): 2.7±0.2 × 10^−3 s^−1
Km (KDM4E [6]; [8]): 169 ± 35.9 µM
kcat (KDM4E [6]; KDM4E, FDH-coupled assay): 0.0027 ± 0.0002 s⁻¹
kcat/KM (KDM4E [6]; [9]): 15.9 × 10^−6

observed arginine demethylation activity (KDM6B): −
observed arginine demethylation activity (KDM4E [1]): +
observed arginine demethylation activity (KDM5C [2]): −
observed arginine demethylation activity (KDM3A [3]): −
Substance: KQLATKAA-Rme2a-KSAPAT [H3 (18–32) R26me2a, 'natural' histone H3 peptide asymmetrically dimethylated at R26]

observed arginine demethylation activity (KDM6B): −
observed arginine demethylation activity (KDM4E [1]): +
observed arginine demethylation activity (KDM5C [2]): −
observed arginine demethylation activity (KDM3A [3]): −
Substance: KQLATKAA-Rme-KSAPAT [H3 (18–32) R26me, 'natural' histone H3 peptide monomethylated at R26]

demethylation, in words (KDM4E [1]): low levels of demethylation
demethylation, in words (KDM5C [2]): low levels of demethylation
Substance: SG-Rme2a-GKGGKGLGKGGAK [H4R3me2a]
